Experimental data published in patent US6221865A, “Inhibitors of protein isoprenyl transferases” (priority 1998, dated 2001).

Target: T1, protein farnesyltransferase (Rattus norvegicus, UniProt Q02293+Q04631)
T1 construct: The enzyme is purified according to Reiss, Y., et al., Cell, 62: 81-88 (1990), utilizing steps one through three; from tissue; host or cells: rat brain
Test: Inhibition of farnesyltransferase (scintillation proximity assay, rat brain enzyme, biotin-K Ras B fragment substrate)
Assay type: biochemical
Conditions: for % inhibition of farnesyltransferase at 1 × 10^-6 M: 1 × 10^-6 M (Table 2); for % inhibition of farnesyltransferase at 1 × 10^-5 M: 1 × 10^-5 M (Table 1)
Outline: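 Enzyme from rat brain, partly purified (steps one to three), assayed by SPA kit using 0.1 mM final biotin-K Ras B peptide as prenyl acceptor rather than biotin-lamin. Activity given as percent inhibition.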

T1 sequence (Q02293 whole entry, one chain of several): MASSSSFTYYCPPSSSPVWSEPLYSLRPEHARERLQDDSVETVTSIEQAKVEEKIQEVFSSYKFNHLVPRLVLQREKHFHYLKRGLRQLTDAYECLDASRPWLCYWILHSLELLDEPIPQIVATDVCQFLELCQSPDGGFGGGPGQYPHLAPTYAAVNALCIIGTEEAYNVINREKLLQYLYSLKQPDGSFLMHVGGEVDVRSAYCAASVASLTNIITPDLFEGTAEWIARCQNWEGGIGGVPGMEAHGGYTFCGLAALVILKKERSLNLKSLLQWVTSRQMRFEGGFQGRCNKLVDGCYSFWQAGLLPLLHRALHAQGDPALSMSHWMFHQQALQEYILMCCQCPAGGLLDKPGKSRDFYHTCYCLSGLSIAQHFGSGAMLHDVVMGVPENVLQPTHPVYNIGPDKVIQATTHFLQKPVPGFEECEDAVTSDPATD

| SMILES | % inhibition of farnesyltransferase at 1 × 10^-6 M [%] | % inhibition of farnesyltransferase at 1 × 10^-5 M [%] |
| --- | --- | --- |
| CSCC[C@H](NC(=O)c1ccc(CN[C@H](/C=C\CC(C)C)CC2CCCCC2)cc1-c1ccccc1)C(=O)O [Example 666] | 82 | – |
| CSCC[C@H](NC(=O)c1ccc(CNCCSc2ccccc2)cc1-c1ccccc1)C(=O)O [Example 667] | 83 | – |
| CSCC[C@H](NC(=O)c1ccc(CNc2ccccc2CCO)cc1-c1ccccc1)C(=O)O [Example 671] | 36 | – |
| CSCC[C@H](NC(=O)c1ccc(CNc2ccccc2N(C)C)cc1-c1ccccc1)C(=O)O [Example 672] | – | 48 |
| CSCC[C@H](NC(=O)c1ccc(CNc2ccccc2N2CCCCC2)cc1-c1ccccc1)C(=O)O [Example 673] | 59 | – |
| CSCC[C@H](NC(=O)c1ccc(CNc2cccc(C)c2)cc1-c1ccccc1)C(=O)O [Example 674] | – | 40 |
| CSCC[C@H](NC(=O)c1ccc(CNc2cccc(O)c2)cc1-c1ccccc1)C(=O)O [Example 676] | – | 76 |
| CSCC[C@H](NC(=O)c1ccc(CNc2cccc(I)c2)cc1-c1ccccc1)C(=O)O [Example 677] | 37 | – |
| CSCC[C@H](NC(=O)c1ccc(CNc2cccc(OC(F)(F)F)c2)cc1-c1ccccc1)C(=O)O [Example 678] | – | 73 |
| CSCC[C@H](NC(=O)c1ccc(CNc2cccc(CO)c2)cc1-c1ccccc1)C(=O)O [Example 680] | – | 58 |
| CSCC[C@H](NC(=O)c1ccc(CNc2cccc(C(N)=O)c2)cc1-c1ccccc1)C(=O)O [Example 682] | 31 | – |
| CSCC[C@H](NC(=O)c1ccc(CNc2cccc(N(C)C)c2)cc1-c1ccccc1)C(=O)O [Example 683] | – | 57 |
| CSCC[C@H](NC(=O)c1ccc(CNc2cccc(CC(=O)O)c2)cc1-c1ccccc1)C(=O)O [Example 684] | – | 48 |
| CSCC[C@H](NC(=O)c1ccc(CNc2cccc(CCC(=O)O)c2)cc1-c1ccccc1)C(=O)O [Example 685] | – | 55 |
| CSCC[C@H](NC(=O)c1ccc(CNc2cccc(Oc3ccccc3)c2)cc1-c1ccccc1)C(=O)O [Example 686] | – | 48 |
| CSCC[C@H](NC(=O)c1ccc(CNc2ccc(F)cc2)cc1-c1ccccc1)C(=O)O [Example 687] | – | 78 |
| CSCC[C@H](NC(=O)c1ccc(CNc2ccc(I)cc2)cc1-c1ccccc1)C(=O)O [Example 688] | – | 71 |
| CSCC[C@H](NC(=O)c1ccc(CNc2ccc(O)cc2)cc1-c1ccccc1)C(=O)O [Example 689] | – | 73 |
| COc1ccc(NCc2ccc(C(=O)N[C@@H](CCSC)C(=O)O)c(-c3ccccc3)c2)cc1 [Example 690] | – | 61 |
| CSCC[C@H](NC(=O)c1ccc(CNc2ccc(OC(F)(F)F)cc2)cc1-c1ccccc1)C(=O)O [Example 691] | 34 | – |
| CSCC[C@H](NC(=O)c1ccc(CNc2ccc(C(C)C)cc2)cc1-c1ccccc1)C(=O)O [Example 692] | – | 74 |
| CSCC[C@H](NC(=O)c1ccc(CNc2ccc(C(O)(C(F)(F)F)C(F)(F)F)cc2)cc1-c1ccccc1)C(=O)O [Example 693] | 53 | – |
| CSCC[C@H](NC(=O)c1ccc(CNc2ccc(CCO)cc2)cc1-c1ccccc1)C(=O)O [Example 694] | 45 | – |
| CSCC[C@H](NC(=O)c1ccc(CNc2ccc(N3CCCCC3)cc2)cc1-c1ccccc1)C(=O)O [Example 697] | 39 | – |
| CSCC[C@H](NC(=O)c1ccc(CNc2ccc(C3CCCCC3)cc2)cc1-c1ccccc1)C(=O)O [Example 699] | – | 74 |
| CSCC[C@H](NC(=O)c1ccc(CNc2ccc(-c3ccccc3)cc2)cc1-c1ccccc1)C(=O)O [Example 700] | – | 68 |
